Laboratory results: US12391648B2, “Pyridyloxy thioester derivative and preparation method therefor, herbicidal composition, and application” (Qingdao Kingagroot Chemical Compound Co., Ltd., priority 2018, dated 2025)

Key:
Experiment in all cases: Post-emergence test experiment (Table 3, 1000 g/ha)
Format in all cases: in vivo
Conditions in all cases: post-emergence spray, after 3 weeks, fresh weight inhibition
[1] = tested on: Abutilon theophrasti
From the text: (§1) The activity level standard of harmful plants destruction (i. e. growth inhibition rate) is as follows: • Level 5: the growth inhibition rate is greater than 85%; • Level 4: the growth inhibition rate is equal to or greater than 60% and less than 85%; • Level 3: the growth inhibition rate is equal to or greater than 40% and less than 60%; • Level 2: the growth inhibition rate is equal to or greater than 20% and less than 40%; • Level 1: the growth inhibition rate is equal to or greater than 5% and less than 20%; • Level 0: the growth inhibition rate is less than 5%;
(§2) The above described growth inhibition rate is fresh weight inhibition rate.
(§3) Post-emergence test experiment: Monocotyledonous and dicotyledonous weed seeds and main crop seeds (i. e. wheat, corn, rice, soybean, cotton, oilseed, millet and sorghum.) were put into a plastic pot loaded with soil. Then covered with 0.5-2 cm soil, the seeds were allowed to grow in good greenhouse environment. The test plants were treated at 2-3 leaf stage 2 weeks after sowing. The test compounds of the invention were dissolved with acetone respectively, then added with tween-80, and using 1.5 liters per hectare of an emulsible concentrate of methyl oleate as a synergist, and diluted by certain amount of water to certain concentration. The solution was sprayed to the plants with a sprayer. Then the plants were cultured for 3 weeks in the greenhouse, and the experiment result of weed controlling effect after 3 weeks was listed in tables 3-4.

[2] = tested on: Monochoria vaginalis
From the text: as §1, §2, §3

[3] = tested on: Digitaria sanguinalis
From the text: as §1, §2, §3

[4] = tested on: Setaria viridis
From the text: as §1, §2, §3

[5] = tested on: Galium spurium
From the text: as §1, §2, §3

[6] = tested on: Leptochloa chinensis
From the text: as §1, §2, §3

Compound | Activity level (growth inhibition rate) Abutilon theophrasti [1] | Activity level (growth inhibition rate) Monochoria Vaginalis [2] | Activity level (growth inhibition rate) Digitaria sanguinalis [3] | Activity level (growth inhibition rate) Setaria viridis [4] | Activity level (growth inhibition rate) Galium spurium [5] | Activity level (growth inhibition rate) Leptochloa chinensis [6]
CSC(=O)C(C)Oc1nc(C(F)(F)F)c(Cl)c(N)c1Cl (stereo not drawn) [Compound 6] | 5 (Level 5: the growth inhibition rate is greater than 85%) | 5 (Level 5: the growth inhibition rate is greater than 85%) | 5 (Level 5: the growth inhibition rate is greater than 85%) | 5 (Level 5: the growth inhibition rate is greater than 85%) | 5 (Level 5: the growth inhibition rate is greater than 85%) | 5 (Level 5: the growth inhibition rate is greater than 85%)
CCc1c(OC(C)C(=O)SC)nc(C(F)(F)F)c(CC)c1N (stereo not drawn) [Compound 8] | 5 (Level 5: the growth inhibition rate is greater than 85%) | 5 (Level 5: the growth inhibition rate is greater than 85%) | 5 (Level 5: the growth inhibition rate is greater than 85%) | 5 (Level 5: the growth inhibition rate is greater than 85%) | 5 (Level 5: the growth inhibition rate is greater than 85%) | 5 (Level 5: the growth inhibition rate is greater than 85%)
CSC(=O)C(C)Oc1ncc(C(C)C)c(N)c1Cl (stereo not drawn) [Compound 9] | 5 (Level 5: the growth inhibition rate is greater than 85%) | 5 (Level 5: the growth inhibition rate is greater than 85%) | 5 (Level 5: the growth inhibition rate is greater than 85%) | 5 (Level 5: the growth inhibition rate is greater than 85%) | 5 (Level 5: the growth inhibition rate is greater than 85%) | 5 (Level 5: the growth inhibition rate is greater than 85%)
CSC(=O)C(C)Oc1nc(Cl)c(C2CC2)c(N)c1Cl (stereo not drawn) [Compound 10] | 5 (Level 5: the growth inhibition rate is greater than 85%) | 5 (Level 5: the growth inhibition rate is greater than 85%) | 5 (Level 5: the growth inhibition rate is greater than 85%) | 5 (Level 5: the growth inhibition rate is greater than 85%) | 5 (Level 5: the growth inhibition rate is greater than 85%) | 5 (Level 5: the growth inhibition rate is greater than 85%)
CSC(=O)C(C)Oc1nc(C(F)(F)F)c(F)c(N)c1C(C)C (stereo not drawn) [Compound 11] | 5 (Level 5: the growth inhibition rate is greater than 85%) | 5 (Level 5: the growth inhibition rate is greater than 85%) | 5 (Level 5: the growth inhibition rate is greater than 85%) | 5 (Level 5: the growth inhibition rate is greater than 85%) | 5 (Level 5: the growth inhibition rate is greater than 85%) | 5 (Level 5: the growth inhibition rate is greater than 85%)
CSC(=O)C(C)Oc1nc(F)c(Br)c(N)c1Br (stereo not drawn) [Compound 12] | 5 (Level 5: the growth inhibition rate is greater than 85%) | 5 (Level 5: the growth inhibition rate is greater than 85%) | 5 (Level 5: the growth inhibition rate is greater than 85%) | 5 (Level 5: the growth inhibition rate is greater than 85%) | 5 (Level 5: the growth inhibition rate is greater than 85%) | 5 (Level 5: the growth inhibition rate is greater than 85%)
CSC(=O)C(C)Oc1ncc(I)c(N)c1I (stereo not drawn) [Compound 13] | 5 (Level 5: the growth inhibition rate is greater than 85%) | 5 (Level 5: the growth inhibition rate is greater than 85%) | 5 (Level 5: the growth inhibition rate is greater than 85%) | 5 (Level 5: the growth inhibition rate is greater than 85%) | 5 (Level 5: the growth inhibition rate is greater than 85%) | 5 (Level 5: the growth inhibition rate is greater than 85%)
CCCc1c(F)nc(OC(C)C(=O)SC)c(C2CC2)c1N (stereo not drawn) [Compound 14] | 5 (Level 5: the growth inhibition rate is greater than 85%) | 5 (Level 5: the growth inhibition rate is greater than 85%) | 5 (Level 5: the growth inhibition rate is greater than 85%) | 5 (Level 5: the growth inhibition rate is greater than 85%) | 5 (Level 5: the growth inhibition rate is greater than 85%) | 5 (Level 5: the growth inhibition rate is greater than 85%)
CSC(=O)C(C)Oc1nc(F)c(C(F)(F)F)c(N)c1Cl (stereo not drawn) [Compound 15] | 5 (Level 5: the growth inhibition rate is greater than 85%) | 5 (Level 5: the growth inhibition rate is greater than 85%) | 5 (Level 5: the growth inhibition rate is greater than 85%) | 5 (Level 5: the growth inhibition rate is greater than 85%) | 5 (Level 5: the growth inhibition rate is greater than 85%) | 5 (Level 5: the growth inhibition rate is greater than 85%)
CCSC(=O)C(C)Oc1ncc(Cl)c(N)c1C(F)(F)F (stereo not drawn) [Compound 16] | 5 (Level 5: the growth inhibition rate is greater than 85%) | 5 (Level 5: the growth inhibition rate is greater than 85%) | 5 (Level 5: the growth inhibition rate is greater than 85%) | 5 (Level 5: the growth inhibition rate is greater than 85%) | 5 (Level 5: the growth inhibition rate is greater than 85%) | 5 (Level 5: the growth inhibition rate is greater than 85%)
CSC(=O)C(C)Oc1nc(I)c(Cl)c(N)c1Cl (stereo not drawn) [Compound 17] | 5 (Level 5: the growth inhibition rate is greater than 85%) | 5 (Level 5: the growth inhibition rate is greater than 85%) | 5 (Level 5: the growth inhibition rate is greater than 85%) | 5 (Level 5: the growth inhibition rate is greater than 85%) | 5 (Level 5: the growth inhibition rate is greater than 85%) | 5 (Level 5: the growth inhibition rate is greater than 85%)
CCCc1c(OC(C)C(=O)SCC(F)(F)F)nc(Br)c(Cl)c1N (stereo not drawn) [Compound 18] | 5 (Level 5: the growth inhibition rate is greater than 85%) | 5 (Level 5: the growth inhibition rate is greater than 85%) | 5 (Level 5: the growth inhibition rate is greater than 85%) | 5 (Level 5: the growth inhibition rate is greater than 85%) | 5 (Level 5: the growth inhibition rate is greater than 85%) | 5 (Level 5: the growth inhibition rate is greater than 85%)
CCCCC(CC)CSC(=O)C(C)Oc1nc(C)c(C)c(N)c1C (stereo not drawn) [Compound 19] | 5 (Level 5: the growth inhibition rate is greater than 85%) | 5 (Level 5: the growth inhibition rate is greater than 85%) | 5 (Level 5: the growth inhibition rate is greater than 85%) | 5 (Level 5: the growth inhibition rate is greater than 85%) | 5 (Level 5: the growth inhibition rate is greater than 85%) | 5 (Level 5: the growth inhibition rate is greater than 85%)
CSC(=O)C(C)Oc1nc(F)c(Cl)c(N)c1C (stereo not drawn) [Compound 20] | 5 (Level 5: the growth inhibition rate is greater than 85%) | 5 (Level 5: the growth inhibition rate is greater than 85%) | 5 (Level 5: the growth inhibition rate is greater than 85%) | 5 (Level 5: the growth inhibition rate is greater than 85%) | 5 (Level 5: the growth inhibition rate is greater than 85%) | 5 (Level 5: the growth inhibition rate is greater than 85%)
